Test results published in PubChem BioAssay AID1288 (Columbia University Molecular Screening Center, 2008).
Calls of active or inactive are those of the source. How the calls were made is not given here.

Columns and labels:
[1] = inhibitors of TNFa-induced E-selectin expression, confirmation, imaging, retest plus dose response, cell count (AID 1288); details: human endothelial cells, TNFa-induced E-selectin, imaging; cell count toxicity; at 10 µM; stronger effect = lower value
[2] = system: human endothelial cells, TNFa-induced E-selectin, imaging; assay: as above

| SMILES | cell count [1] | IC50 [2] |
| --- | --- | --- |
| CN1/C(=C/C(=O)c2nc(S(C)(=O)=O)ncc2Cl)C(C)(C)c2ccccc21 | 97.9% | > 10 µM (inactive) |
| C=C1C(=O)C=C2CN(C(=O)c3ccccc3)[C@@](Cc3ccc(F)cc3)(C(=O)OC)[C@@H]12 | 104% | > 10 µM (inactive) |
| C#CC(=O)N(c1cccc(OC)c1)C(C(=O)NC1CCCC1)c1cccs1 (stereo not given) | 90% | > 10 µM (inactive) |
| COc1ccc(CS(=O)/C(Cl)=C(/Cl)C(=O)Nc2ccc(OC)nc2)cc1 (stereo not given) | 10.3% | 2.02 µM |
| O=C(OCn1ncc(Cl)c(Cl)c1=O)c1ccccc1Cl | 45.3% | > 10 µM (inactive) |
| Cc1nc2scc(-c3ccccc3)c2c(=O)n1N=C1C=CC(=O)C=C1 | 92.3% | > 10 µM (inactive) |
| COC(=O)C1CN(C#N)N(c2ccc(Cl)cc2)C12c1ccccc1-c1ccccc12 (stereo not given) | 113% | > 10 µM (inactive) |
| CN1C2CCC1/C(=C/c1ccccn1)C(=O)/C2=C\c1ccccn1 | 51.6% | 2.8 µM |
| Cc1ccc2nc3cc([N+](=O)[O-])cc([N+](=O)[O-])c3cc2c1 | 101% | > 10 µM (inactive) |
| CC(C)(C)C1=CC(=O)C(=O)C(C(C)(C)C)=C1 | 95% | > 10 µM (inactive) |
| O=C(c1ccc([N+](=O)[O-])cc1)N(Cc1ccc(Br)cc1)N1C(=O)CCCC1=O | 95.3% | 6.82 µM |
| CCN(CC)c1ccc2c(Cl)c(Br)c(=O)oc2c1 | 11.5% | 2.16 µM |
| O=C(OCn1ncc(Cl)c(Cl)c1=O)c1ccc(F)cc1 | 107% | > 10 µM (inactive) |
| Cc1ccc(-c2nc(NC(=O)c3nn(C)cc3[N+](=O)[O-])sc2C)cc1C | 106% | > 10 µM (inactive) |
| COc1ccc(NC(=O)/C(Cl)=C(/Cl)S(=O)(=O)Cc2ccc(C)cc2)cn1 | 89.6% | > 10 µM (inactive) |
| O=C(Nc1ccccc1)C1=C(c2ccccc2)S(=O)(=O)CCS1(=O)=O | 77.8% | 7.63 µM |
| CCc1ccc(N2C(=O)NC(=O)/C(=C/c3cccn3CCOc3ccc(C(C)CC)cc3)C2=O)cc1 (stereo not given) | 17.9% | 1.37 µM |
| C#CC(=O)N(c1cc(OC)ccc1OC)C(C(=O)NC1CCCC1)c1cccs1 (stereo not given) | 33.9% | 9.61 µM |
| CC(C)(C)C(=O)/C(=C\c1ccc([N+](=O)[O-])cc1)n1cncn1 | 94.9% | > 10 µM (inactive) |
| COC(=O)c1ccccc1NC(=O)c1ccc(-c2cccc(Cl)c2)o1 | 13.8% | 2.09 µM |
| N#CC(C#N)=C1C=CC=CN1/C(=C\c1ccccc1Cl)C(=O)c1ccccc1 | 68.3% | 4.99 µM |
| COc1ccc(Oc2cc(NC(=O)c3nn(C)cc3[N+](=O)[O-])cc([N+](=O)[O-])c2)cc1 | 23.9% | 3.5 µM |
| N#Cc1ccc(-c2cccnc2)nc1SCc1ccc(Cl)c(Cl)c1 | 2.48% | 2.75 µM |
| CS(=O)(=O)c1ccc(S(=O)CC(=O)OCc2ccccc2)c([N+](=O)[O-])c1 (stereo not given) | 98.7% | > 10 µM (inactive) |
| COc1ccc(NC(=O)/C(Cl)=C(/Cl)S(=O)Cc2ccc(Cl)cc2)cn1 (stereo not given) | 0.27% | 1.66 µM |
| COC(=O)/C=C/S(=O)(=O)c1ccc(NC(C)=O)cc1 | 106% | > 10 µM (inactive) |
| COc1ccc(NC(=O)c2cc3c(Cl)nc4ccccc4c3s2)c(OC)c1 | 89.6% | > 10 µM (inactive) |
| C=C1C(=O)[C@@]23[C@H](O)C[C@@H]4C(C)(C)CC[C@H](O)[C@@]4(C)[C@@H]2CC[C@@H]1[C@H]3O | 10.1% | 2 µM |
| Cc1ccc(C(=O)OCn2ncc(Cl)c(Cl)c2=O)cc1 | 101% | > 10 µM (inactive) |
| CN(CCC#N)C(=O)COC(=O)c1ccccc1C(=O)c1ccc(Cl)c([N+](=O)[O-])c1 | 15.6% | 1.37 µM |
